Results taken from patent US20050261349A1, “Medicine for prevention or treatment of diabetes” (priority 2004, published 2005).

System: C57BL/KsJ db/db mice
Experiment: Hypoglycemic effect of single or combined oral administration in db/db mice (plasma glucose concentration)
Type: in vivo, mouse
Conditions: 14th day, 2 hours after oral administration; for Decreasing rate (of plasma glucose concentration vs control group): calculated from group means vs control group; for Plasma glucose concentration: mean±standard deviation for 6 mice, control group 519 ± 69
Procedure: As test animals, C57BL/KsJ db/db mice were used, which were created in Jackson Laboratory (USA) and known as an obesity, hyperlipemia, hyperinsulinemia, and insulin-resistant model (Journal of Clinical Investigation, 85, pp 962-967, 1990). Blood was collected from the orbital venous plexus of each 7-week-old db/db mouse using a heparin-treated capillary tube, and centrifugation was performed to collect plasma. Thereafter, the plasma glucose concentration (Glucose CII-Test Wako (Wako Pure Chemical Industries, Ltd.)), the insulin concentration (Lebis Insulin Kit: for mouse-T (SHIBAYAGI)), and the triglyceride concentration (Triglyceride E-Test Wako (Wako Pure Chemical Industries, Ltd.)) were measured for classification. The classification was performed so that distribution of each measurement item is uniform for each group by block allocation based on many variables in which the plasma glucose concentration is most emphasized using the measured values of the plasma glucose concentration, the body weight, the insulin concentration, and the triglyceride concentration. […] Two hours after the administration, blood was collected from the orbital venous plexus, and the plasma thereof was collected to measure the plasma glucose concentration. […] Each plasma glucose concentration is expressed as mean±standard deviation for 6 mice of each group. Each decreasing rate is calculated from ((mean of plasma glucose concentration of control group)−(mean of plasma glucose concentration of each group))/(mean of plasma glucose concentration of control group)×100, while each relative index is calculated from (mean of plasma glucose concentration of each group)/(mean of plasma glucose concentration of control group).

Compound | Relative index (mean plasma glucose of group / mean of control group) | Decreasing rate (of plasma glucose concentration vs control group) [%] | Decreasing rate (of plasma glucose concentration vs control group) (listed as glibenclamide) [%] | Plasma glucose concentration [mg/dL] | Decreasing rate (of plasma glucose concentration vs control group) (listed as sodium 2,2-dichloro-12-(4-chlorophenyl)-dodecanoate) [%]
COc1ccc(Cl)cc1C(=O)NCCc1ccc(S(=O)(=O)NC(=O)NC2CCCCC2)cc1 [Glibenclamide] | 0.79 | 21 | 21 | 412 ± 153 | 
O=C([O-])C(Cl)(Cl)CCCCCCCCCCc1ccc(Cl)cc1.[Na+] [sodium 2,2-dichloro-12-(4-chlorophenyl)-dodecanoate] | 0.49 | 51 |  | 253 ± 75 | 51
